Source: publication PMC7265341, “Quantifying CDK inhibitor selectivity in live cells” (Nature Communications, 2020)
Where two headings read alike, the source gives them in different places.

Tests used:
Assay type in all cases: binding
CDK1/Cyclin E1 = CDK1/Cyclin E1 (Homo sapiens, UniProt P06493); experiment: NanoBRET live-cell target engagement, CDK1-NanoLuc/Cyclin E1 in HEK-293; conditions: for inhibition at 10 µM: read-out: CDK1/E1 Inhibition at 10µM (%); for IC50: read-out: CDK1/E1 IC50
CDK2/Cyclin E1 = CDK2/Cyclin E1 (Homo sapiens, UniProt P24941); experiment: NanoBRET live-cell target engagement, CDK2-NanoLuc/Cyclin E1 in HEK-293; conditions: for inhibition at 10 µM: read-out: CDK2/E1 Inhibition at 10µM (%); for CDK2 Occupancy (%): Panel A
CDK3/Cyclin E1 = CDK3/Cyclin E1 (Homo sapiens, UniProt Q00526); experiment: NanoBRET live-cell target engagement, CDK3-NanoLuc/Cyclin E1 in HEK-293; conditions: for inhibition at 10 µM: read-out: CDK3/E1 Inhibition at 10µM (%); for IC50: read-out: CDK3/E1 IC50
CDK4/Cyclin D1 = CDK4/Cyclin D1 (Homo sapiens, UniProt P11802); experiment: NanoBRET live-cell target engagement, NanoLuc-CDK4/Cyclin D1 in HEK-293; conditions: for inhibition at 10 µM: read-out: CDK4/D1 Inhibition at 10µM (%); for IC50: read-out: CDK4/D1 IC50
CDK5/CDK5R1 = CDK5/CDK5R1 (Homo sapiens, UniProt Q00535); experiment: NanoBRET live-cell target engagement, CDK5-NanoLuc/CDK5R1 in HEK-293; conditions: for inhibition at 10 µM: read-out: CDK5/CDK5R1 Inhibition at 10µM (%); for IC50: read-out: CDK5/CDK5R1 IC50
CDK6/Cyclin D1 = CDK6/Cyclin D1 (Homo sapiens, UniProt Q00534); experiment: NanoBRET live-cell target engagement, NanoLuc-CDK6/Cyclin D1 in HEK-293; conditions: for inhibition at 10 µM: read-out: CDK6/D1 Inhibition at 10µM (%); for CDK6 Occupancy (%): Panel A
CDK7 = CDK7 (Homo sapiens, UniProt P50613); experiment: NanoBRET live-cell target engagement, NanoLuc-CDK7 in HEK-293; conditions: for inhibition at 10 µM: read-out: CDK7 Inhibition at 10µM (%); for CDK7 Occupancy (%): Panel A
[1] = LOG10([RGB-286638]) 0.045757 LOG10(µM)
[2] = LOG10([RGB-286638]) 0.522879 LOG10(µM)
[3] = LOG10([RGB-286638]) 1 LOG10(µM)
[4] = LOG10([RGB-286638]) -0.43136 LOG10(µM)
[5] = LOG10([RGB-286638]) -0.90849 LOG10(µM)
[6] = LOG10([RGB-286638]) -1.38561 LOG10(µM)
[7] = LOG10([RGB-286638]) -1.86273 LOG10(µM)
[8] = LOG10([RGB-286638]) -2.33985 LOG10(µM)
[9] = LOG10([RGB-286638]) -2.81697 LOG10(µM)
[10] = LOG10([RGB-286638]) -3.29409 LOG10(µM)
[11] = LOG10([RGB-286638]) -3.77121 LOG10(µM)

Chain of CDK6/Cyclin D1 (Q00534 whole entry): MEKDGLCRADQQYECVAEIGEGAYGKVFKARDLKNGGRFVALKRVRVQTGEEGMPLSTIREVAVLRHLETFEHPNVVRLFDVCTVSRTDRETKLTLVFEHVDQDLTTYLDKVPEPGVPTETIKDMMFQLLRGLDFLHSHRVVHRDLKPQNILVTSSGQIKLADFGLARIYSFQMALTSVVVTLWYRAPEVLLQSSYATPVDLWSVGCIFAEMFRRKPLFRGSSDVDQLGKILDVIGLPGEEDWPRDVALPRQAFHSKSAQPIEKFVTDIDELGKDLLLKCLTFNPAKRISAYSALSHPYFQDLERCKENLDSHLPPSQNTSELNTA
Chain of CDK6/Cyclin D1 (P24385 whole entry partner): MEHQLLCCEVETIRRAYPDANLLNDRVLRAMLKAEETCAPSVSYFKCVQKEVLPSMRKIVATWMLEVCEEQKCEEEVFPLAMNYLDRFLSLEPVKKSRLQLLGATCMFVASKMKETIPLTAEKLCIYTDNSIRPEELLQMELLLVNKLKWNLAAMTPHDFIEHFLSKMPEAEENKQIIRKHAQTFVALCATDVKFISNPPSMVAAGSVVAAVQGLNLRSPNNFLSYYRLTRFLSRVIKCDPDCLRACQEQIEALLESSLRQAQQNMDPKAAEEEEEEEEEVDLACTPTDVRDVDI
Chain of CDK3/Cyclin E1 (Q00526 whole entry): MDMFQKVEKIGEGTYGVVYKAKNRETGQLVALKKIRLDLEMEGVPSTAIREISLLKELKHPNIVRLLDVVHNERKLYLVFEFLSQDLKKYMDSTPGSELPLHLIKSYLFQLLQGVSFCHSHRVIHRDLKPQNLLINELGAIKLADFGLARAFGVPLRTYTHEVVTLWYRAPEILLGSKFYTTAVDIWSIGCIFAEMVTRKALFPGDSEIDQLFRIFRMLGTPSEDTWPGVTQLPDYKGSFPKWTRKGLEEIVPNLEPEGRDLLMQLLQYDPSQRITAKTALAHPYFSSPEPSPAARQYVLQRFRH
Chain of CDK3/Cyclin E1 (P24864 whole entry partner): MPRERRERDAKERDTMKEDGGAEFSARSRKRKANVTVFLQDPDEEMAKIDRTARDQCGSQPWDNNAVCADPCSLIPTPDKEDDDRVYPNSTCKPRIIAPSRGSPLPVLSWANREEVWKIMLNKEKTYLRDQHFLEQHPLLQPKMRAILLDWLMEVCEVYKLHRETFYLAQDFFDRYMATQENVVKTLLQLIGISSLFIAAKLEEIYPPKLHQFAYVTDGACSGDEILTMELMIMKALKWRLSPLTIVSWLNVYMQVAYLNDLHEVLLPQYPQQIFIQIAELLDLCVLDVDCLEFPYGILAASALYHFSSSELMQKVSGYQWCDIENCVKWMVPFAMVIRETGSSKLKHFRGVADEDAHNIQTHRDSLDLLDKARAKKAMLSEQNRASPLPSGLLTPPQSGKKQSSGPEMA
Chain of CDK5/CDK5R1 (Q00535 whole entry): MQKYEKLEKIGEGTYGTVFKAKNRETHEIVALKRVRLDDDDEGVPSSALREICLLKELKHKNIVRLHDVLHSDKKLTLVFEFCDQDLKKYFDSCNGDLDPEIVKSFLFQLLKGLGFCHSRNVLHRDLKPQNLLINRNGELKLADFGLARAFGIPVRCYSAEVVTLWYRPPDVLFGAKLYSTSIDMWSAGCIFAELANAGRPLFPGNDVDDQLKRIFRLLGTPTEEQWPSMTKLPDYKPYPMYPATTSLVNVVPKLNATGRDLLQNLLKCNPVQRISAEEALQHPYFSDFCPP
Chain of CDK5/CDK5R1 (Q15078 whole entry partner): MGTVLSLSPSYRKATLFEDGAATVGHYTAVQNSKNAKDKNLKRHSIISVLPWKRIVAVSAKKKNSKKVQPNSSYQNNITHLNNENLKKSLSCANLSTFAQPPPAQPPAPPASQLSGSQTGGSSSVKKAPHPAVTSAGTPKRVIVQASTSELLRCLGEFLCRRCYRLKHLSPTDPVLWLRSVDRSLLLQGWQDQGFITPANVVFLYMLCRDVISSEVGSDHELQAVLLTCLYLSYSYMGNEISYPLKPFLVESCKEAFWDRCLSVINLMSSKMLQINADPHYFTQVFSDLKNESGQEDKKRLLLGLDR
Chain of CDK4/Cyclin D1 (P11802 whole entry): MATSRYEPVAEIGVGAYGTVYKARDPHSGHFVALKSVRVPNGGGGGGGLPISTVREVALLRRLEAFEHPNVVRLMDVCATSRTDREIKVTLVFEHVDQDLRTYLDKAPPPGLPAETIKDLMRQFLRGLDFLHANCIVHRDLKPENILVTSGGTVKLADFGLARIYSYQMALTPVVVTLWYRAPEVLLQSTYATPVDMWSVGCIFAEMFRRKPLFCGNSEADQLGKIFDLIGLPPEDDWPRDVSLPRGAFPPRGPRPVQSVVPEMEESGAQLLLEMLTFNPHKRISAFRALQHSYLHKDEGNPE
Chain of CDK4/Cyclin D1 (P24385 whole entry partner): as the sequence (P24385 whole entry partner) above
Chain of CDK7 (P50613 whole entry): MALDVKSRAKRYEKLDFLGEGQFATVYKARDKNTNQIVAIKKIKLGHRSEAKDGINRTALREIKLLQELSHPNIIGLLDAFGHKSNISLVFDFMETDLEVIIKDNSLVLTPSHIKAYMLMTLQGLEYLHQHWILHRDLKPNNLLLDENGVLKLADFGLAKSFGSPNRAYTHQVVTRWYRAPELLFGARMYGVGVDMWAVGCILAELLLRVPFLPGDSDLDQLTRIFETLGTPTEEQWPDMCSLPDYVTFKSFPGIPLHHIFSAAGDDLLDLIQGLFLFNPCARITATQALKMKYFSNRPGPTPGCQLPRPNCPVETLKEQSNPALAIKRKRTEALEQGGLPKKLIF
Chain of CDK1/Cyclin E1 (P06493 whole entry): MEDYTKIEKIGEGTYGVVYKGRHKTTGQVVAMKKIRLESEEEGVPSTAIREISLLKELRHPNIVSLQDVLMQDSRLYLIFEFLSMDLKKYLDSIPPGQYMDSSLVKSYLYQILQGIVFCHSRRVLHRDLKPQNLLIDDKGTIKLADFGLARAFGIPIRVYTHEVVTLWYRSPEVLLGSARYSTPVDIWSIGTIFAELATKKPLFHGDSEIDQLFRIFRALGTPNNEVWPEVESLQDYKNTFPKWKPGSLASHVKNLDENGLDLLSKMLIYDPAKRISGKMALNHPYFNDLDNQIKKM
Chain of CDK1/Cyclin E1 (P24864 whole entry partner): as the sequence (P24864 whole entry partner) above

**Q.** Which results are given for `COCCN1CCN(Cc2ccc(-c3n[nH]c4c3C(=O)c3c(NC(=O)NN5CCOCC5)cccc3-4)cc2)CC1` [RGB286638]?
**A.** inhibition at 10 µM (CDK1/Cyclin E1; average of experiments): 87.9%; inhibition at 10 µM (CDK1/Cyclin E1; independent experiment 1): 79.8%; inhibition at 10 µM (CDK1/Cyclin E1; independent experiment 2): 96%; IC50 (CDK1/Cyclin E1; average (± SEM where n=3)): 39 nM; IC50 (CDK1/Cyclin E1; independent experiment 1): 37 nM; IC50 (CDK1/Cyclin E1; independent experiment 2): 41 nM; inhibition at 10 µM (CDK2/Cyclin E1; average of experiments): 84.4%; inhibition at 10 µM (CDK2/Cyclin E1; independent experiment 1): 83.7%; inhibition at 10 µM (CDK2/Cyclin E1; independent experiment 2): 85.1%; CDK2 Occupancy (%) (CDK2/Cyclin E1; [1]): 96.9519%; CDK2 Occupancy (%) (CDK2/Cyclin E1; [2]): 98.1016%; CDK2 Occupancy (%) (CDK2/Cyclin E1; [3]): 98.1016%; CDK2 Occupancy (%) (CDK2/Cyclin E1; [4]): 95.1872%; CDK2 Occupancy (%) (CDK2/Cyclin E1; [5]): 90.2941%; CDK2 Occupancy (%) (CDK2/Cyclin E1; [6]): 78.6096%; CDK2 Occupancy (%) (CDK2/Cyclin E1; [7]): 57.754%; CDK2 Occupancy (%) (CDK2/Cyclin E1; [8]): 30.4813%; CDK2 Occupancy (%) (CDK2/Cyclin E1; [9]): 11.4973%; CDK2 Occupancy (%) (CDK2/Cyclin E1; [10]): 5.615%; CDK2 Occupancy (%) (CDK2/Cyclin E1; [11]): 0.2674%; IC50 (CDK2/Cyclin E1; average (± SEM where n=3), read-out: CDK2/E1 IC50): 14 ± 5 nM; IC50 (CDK2/Cyclin E1; independent experiment 1, read-out: CDK2/E1 IC50): 8.9 nM; IC50 (CDK2/Cyclin E1; independent experiment 2, read-out: CDK2/E1 IC50): 9.8 nM; IC50 (CDK2/Cyclin E1; independent experiment 3, read-out: CDK2/E1 IC50): 23 nM; IC50 (CDK2/Cyclin E1; live HEK-293, 2 h, mean ± S.E.M. (n=3) or mean (n=2), read-out: IC50 for CDK/cyclin complexes, CDK2/E1): 12 to 16 nM; inhibition at 10 µM (CDK3/Cyclin E1; average of experiments): 91.3%; inhibition at 10 µM (CDK3/Cyclin E1; independent experiment 1): 89.1%; inhibition at 10 µM (CDK3/Cyclin E1; independent experiment 2): 93.6%; IC50 (CDK3/Cyclin E1; average (± SEM where n=3)): 12 nM; IC50 (CDK3/Cyclin E1; independent experiment 1): 14 nM; IC50 (CDK3/Cyclin E1; independent experiment 2): 10 nM; inhibition at 10 µM (CDK4/Cyclin D1; average of experiments): 99.8%; inhibition at 10 µM (CDK4/Cyclin D1; independent experiment 1): 99.7%; inhibition at 10 µM (CDK4/Cyclin D1; independent experiment 2): 100%; IC50 (CDK4/Cyclin D1; average (± SEM where n=3)): 10 nM; IC50 (CDK4/Cyclin D1; independent experiment 1): 9.6 nM; IC50 (CDK4/Cyclin D1; independent experiment 2): 11 nM; inhibition at 10 µM (CDK5/CDK5R1; average of experiments): 84.4%; inhibition at 10 µM (CDK5/CDK5R1; independent experiment 1): 71.7%; inhibition at 10 µM (CDK5/CDK5R1; independent experiment 2): 97.2%; IC50 (CDK5/CDK5R1; average (± SEM where n=3)): 75 nM; IC50 (CDK5/CDK5R1; independent experiment 1): 80 nM; IC50 (CDK5/CDK5R1; independent experiment 2): 70 nM; inhibition at 10 µM (CDK6/Cyclin D1; average of experiments): 99.1%; inhibition at 10 µM (CDK6/Cyclin D1; independent experiment 1): 98.9%; inhibition at 10 µM (CDK6/Cyclin D1; independent experiment 2): 99.4%; CDK6 Occupancy (%) (CDK6/Cyclin D1; [1]): 96.3121%; CDK6 Occupancy (%) (CDK6/Cyclin D1; [2]): 95.6738%; CDK6 Occupancy (%) (CDK6/Cyclin D1; [3]): 95.6028%; CDK6 Occupancy (%) (CDK6/Cyclin D1; [4]): 95.1064%; CDK6 Occupancy (%) (CDK6/Cyclin D1; [5]): 90.4255%; CDK6 Occupancy (%) (CDK6/Cyclin D1; [6]): 76.8794%; CDK6 Occupancy (%) (CDK6/Cyclin D1; [7]): 49.6454%; CDK6 Occupancy (%) (CDK6/Cyclin D1; [8]): 19.8582%; CDK6 Occupancy (%) (CDK6/Cyclin D1; [9]): 7.0922%; CDK6 Occupancy (%) (CDK6/Cyclin D1; [10]): 2.128%; CDK6 Occupancy (%) (CDK6/Cyclin D1; [11]): 0%; IC50 (CDK6/Cyclin D1; average (± SEM where n=3), read-out: CDK6/D1 IC50): 12 ± 1 nM; IC50 (CDK6/Cyclin D1; independent experiment 1, read-out: CDK6/D1 IC50): 13 nM; IC50 (CDK6/Cyclin D1; independent experiment 2, read-out: CDK6/D1 IC50): 9.7 nM; IC50 (CDK6/Cyclin D1; independent experiment 3, read-out: CDK6/D1 IC50): 14 nM; IC50 (CDK6/Cyclin D1; live HEK-293, 2 h, mean ± S.E.M. (n=3) or mean (n=2), read-out: IC50 for CDK/cyclin complexes, CDK6/D1): 12 to 16 nM; inhibition at 10 µM (CDK7; average of experiments): 93.9%; inhibition at 10 µM (CDK7; independent experiment 1): 91%; inhibition at 10 µM (CDK7; independent experiment 2): 96.7%; CDK7 Occupancy (%) (CDK7; [1]): 97.0886%; CDK7 Occupancy (%) (CDK7; [2]): 96.5823%; CDK7 Occupancy (%) (CDK7; [3]): 97.4684%; CDK7 Occupancy (%) (CDK7; [4]): 93.9241%
